In US10124035B2, “DISC-1 pathway activators in the control of neurogenesis” (Massachusetts Institute of Technology, priority 2008, dated 2018):
“Also recorded” adds a separate entry of the source.

Assays:
[1] = test system: DISC1 shRNA infected mice; experiment: Forced swim test; format: in vivo, mouse
Experimental: (§1) Behavioral abnormalities in DISC1 knockdown mice. a. DISC1 knockdown in adult dentate gyms caused increased hyperactivity in the Open Field Test. b and c. DISC1 knockdown in adult dentate gyms caused depressive-like behavior in the Forced Swimming test and the Novelty Suppression Feeding experiment. b. Forced Swimming Test Mice were put in the beaker with water for 6 minutes and counted the last 4 minutes for the time of immobility. c. Novelty Suppression Feeding Test. Mice were restricted with food for 48 hours and tested for the motivation to eat food. Mice were tested the latency for first bite, the time they spent on food, and the time they ate during 5 minutes. d. […] Mice were injected and allowed to recover for 2 weeks, then treated with the GDK3beta inhibitor SB216763 at 2 mg/kg/day for two weeks, after that the behavioral test was performed.
Alterations in neurogenesis are implicated in the development of depression and other abnormal behaviors. To examine the behavioral consequences of disrupting the DICS1/GSK3β pathway, we silenced DISC1 expression in the adult dentate gyms and evaluated behavioral consequences. Four weeks after the injection of control or DISC1 shRNA-1 lentivirus, mice were treated with vehicle or SB-216763 (2 mg/kg i.p.) every other day for 10 days. […]

[2] = test system: adult progenitor proliferation in dentate gyrus; experiment: Adult progenitor proliferation in dentate gyrus (BrdU) after lentivirus injection; format: in vivo
Text: Cell positioning and BrdU incorporation defects caused by DISC1 loss-of-function are rescued by human WT-DISC1 or SA-β-catenin. The percentage of GFP positive cells in the SVZ/VZ or CP is shown (n=5, **, p<0.01; ***, p<0.005). Scale bar=20 μm. b. The reduction in mitotic index caused by DISC1 knockdown in embryonic brains is rescued by human WT-DISC1 or SA-β-catenin. Arrows indicate GFP and pH3 double positive cells. Shown is the percentage of GFP and pH3 double positive cells in total GFP positive cells (n=4, *, p<0.05; ***, p<0.005). Scale bar=20 μm. c. Control or DISC1 shRNA-1 lentivirus was stereotactically injected into adult dentate gyms. After 4 weeks of recovery, mice received SB216763 (2 mg/kg) every other day for 2 weeks and BrdU (100 mg/kg) daily for 7 days. The GFP signal represents lentiviral infected cells in dentate gyms. Scale bar=50 μm. d. […] The percentage of GFP and BrdU double positive cells is shown (n=5, *, p<0.05; **, p<0.01; ***, p<0.005; ns, not significant). Scale bar=10 μm.
• Mice. Swiss Webster pregnant female mice were purchased from Taconic (Hudson, N.Y.). • Cell Culture. AHPs were kindly provided by Dr. Gage (Lie, D. C. et al. Wnt signaling to regulates adult hippocampal neurogenesis. Nature 437, 1370-5 (2005)) and cultured under conditions described previously (Palmer, T. D., Takahashi, J. & Gage, F. H. The adult rat hippocampus contains primordial neural stem cells. Mol Cell Neurosci 8, 389-404 (1997)). Primary neural progenitors were isolated from E14 mouse embryos and cultured as described previously (Sanada, K. & Tsai, L. H. G protein betagamma subunits and AGS3 control spindle orientation and asymmetric cell fate of cerebral cortical progenitors. Cell 122, 119-31 (2005)). N2a and 293T cells were cultured in DMEM medium containing 10% FBS, L-glutamine, and penicillin/streptomycin. Wnt3a expressing L cells and untransfected L cells were obtained from ATCC (Manassas, Va.). Wnt3a conditional medium was produced according to the ATCC protocol. To induce AHP differentiation, FGF2 was removed from the culture medium and 1 μM retinoic acid/1% FBS was added to the medium for 4 days. • Reagents. Recombinant Wnt3a protein was obtained from Chemicon (Rosemont, Ill.). FGF2 was obtained from PeproTech (Rocky Hill, N.J.). Recombinant GST-GSK3β was obtained from Active Motif (Carlsbad, Calif.). Recombinant GST-β-catenin and GST-axin were obtained from Millipore (Billerica, Mass.). The GSK313 inhibitor, SB-216763, AR-A104418 and His-GSK3β, were obtained from Sigma-Aldrich (Sigma-Aldrich, St. Louis, Mo.). L803-MTS was obtained from Calbiochem (San Diego, Calif.). GST-AKT1 was obtained from Cell Signaling (Beverly, Mass.). […]

[3] = test system: DISC1 shRNA injected mice; experiment: Open Field test (hyperlocomotion in response to novelty); format: in vivo, mouse; conditions: for hyperlocomotion/hyperactivity in novel open field: DISC1 shRNA injected mice, SB-216763 2 mg/kg i.p.
Experimental: as §1
Alterations in neurogenesis are implicated in the development of depression and other abnormal behaviors. To examine the behavioral consequences of disrupting the DICS1/GSK3β pathway, we silenced DISC1 expression in the adult dentate gyms and evaluated behavioral consequences. Four weeks after the injection of control or DISC1 shRNA-1 lentivirus, mice were treated with vehicle or SB-216763 (2 mg/kg i.p.) every other day for 10 days. […] DISC1 shRNA injected mice traveled a greater distance and spent more time moving in a novel open field than control mice (FIG. 17A). These behaviors were normalized by SB-216763 treatment. We further tested whether DISC1 loss-of-function had consequences on depression-like behavior in the forced swim test. […] Importantly, swimming velocity was unchanged. […] Thus, increased GSK3β activity caused by DISC1 loss-of-function is associated with schizophrenia- and depression-like behaviors.

[4] = previously reported (Selenica et al. 2007); cited from earlier work
[5] = lentivirus in adult dentate gyrus, compared to control mice

With Cn1cc(C2=C(c3ccc(Cl)cc3Cl)C(=O)NC2=O)c2ccccc21 [SB-216763] the “immobility in forced swim test” value ([1]; DISC1 shRNA infected mice, SB-216763 2 mg/kg i.p.) was “suppressed”, the “BrdU positive cells in dentate gyrus” value ([2]; DISC1 shRNA-1 infected mice, SB216763 2 mg/kg for 2 weeks, 2 mg/kg) was “no longer exhibited a reduction in BrdU positive cells; also recorded: can be rescued” and the “number of BrdU positive cells in dentate gyrus” value ([2]; mice infected with control virus, SB216763 2 mg/kg for 2 weeks) was “significantly increased the number of BrdU positive cells”. For the same compound, the “hyperlocomotion/hyperactivity in novel open field” value ([3]; 2 mg/kg) was “normalized”, the “hyperlocomotion/hyperactivity in novel open field” value ([3]; listed as SB216763, 2 mg/kg) was “can be rescued” and the “crossing of the blood-brain barrier” value [4] was “cross the blood-brain barrier”.
With “DISC1 shRNA-1: shRNA targeting rat and mouse DISC1, SEQ ID NO:4, in pLentiLox 3.7 vector (GGCAAACACTGTGAAGTGC)” the “immobility in forced swim test” value [1, 5] was “greater immobility”, the “active caspase 3 labeling in GFP positive cells in the dentate gyrus” value ([2]; lentivirus injected adult mice) was “no increase in active caspase 3 labeling” and the “BrdU incorporation in adult dentate gyrus” value ([2]; lentivirus injected, compared to control shRNA cells) was “significant reduction in BrdU incorporation”. For the same compound, the “locomotion in novel open field” value [3, 5] was “hyperlocomotion in response to novelty”.
